In PubChem BioAssay (NCI):
Several values for one entry are separate records, joined by “and”; a condition that tells them apart may be missing. Equal values may be shown once.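 A five-concentration, 48-hour dose response in 96-well plates underlies each endpoint, interpolated linearly between surrounding concentrations. GI50 marks 50% less growth. TGI is the concentration that stops growth completely.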

Experiments:
Experiment in all cases: growth of human tumour cells (NCI), 48 h
BT-549 breast = tested on: BT-549 breast
HOP-62 NSCLC = tested on: HOP-62 NSCLC
IGROV1 ovarian = tested on: IGROV1 ovarian
M14 melanoma = tested on: M14 melanoma
SF-539 CNS = tested on: SF-539 CNS
SK-MEL-5 melanoma = tested on: SK-MEL-5 melanoma
TK-10 renal = tested on: TK-10 renal
UACC-62 melanoma = tested on: UACC-62 melanoma
DLD-1 colon = tested on: DLD-1 colon
LXFL 529 NSCLC = tested on: LXFL 529 NSCLC

Structure (SMILES)	GI50 (BT-549 breast)	TGI (BT-549 breast)	GI50 (HOP-62 NSCLC)	TGI (HOP-62 NSCLC)	GI50 (IGROV1 ovarian)	TGI (IGROV1 ovarian)	GI50 (M14 melanoma)	TGI (M14 melanoma)	GI50 (SF-539 CNS)	TGI (SF-539 CNS)	GI50 (SK-MEL-5 melanoma)	TGI (SK-MEL-5 melanoma)	GI50 (TK-10 renal)	TGI (TK-10 renal)	GI50 (UACC-62 melanoma)	TGI (UACC-62 melanoma)	TGI (DLD-1 colon) [µM]	TGI (LXFL 529 NSCLC) [µM]
O=c1oc2ccc(Cl)cc2c(=O)n1-c1ccc(Cl)cc1F	0.483 µM	2.44 µM	0.622 µM	2.86 µM	0.237 µM	20.6 µM	0.578 µM	2.12 µM	0.462 µM	3.7 µM	0.205 µM	0.486 µM	1.59 µM	17.7 µM	0.247 µM	0.964 µM	–	–
COc1cc(N2CCC(N3CCN(C)CC3)CC2)ccc1Nc1ncc(Cl)c(Nc2ccccc2P(C)(C)=O)n1	3.07 µM	13.5 µM	0.797 µM	> 32 µM	0.216 µM	0.784 µM	2.12 µM	> 34 µM	2.1 µM	7.5 µM	11.9 µM	> 100 µM	0.296 µM	3.09 µM	2.94 µM	> 72.2 µM	–	–
CCCC(OCC)(OCC)OCC	–	–	–	> 100 µM	–	> 100 µM	–	> 100 µM	–	> 100 µM	–	> 100 µM	–	> 100 µM	–	> 100 µM	> 100	> 100
COc1ccc(-c2coc3ncnc(N)c23)cc1	> 25 µM	> 25 µM	> 25 µM	> 25 µM	> 25 µM	> 25 µM	> 25 µM	> 25 µM	> 25 µM	> 25 µM	> 25 µM	> 25 µM	> 25 µM	> 25 µM	> 25 µM	> 25 µM	–	–
CCCCCCCCCCCCCOC(=O)c1c(C)[nH]c(/C=C2\N=C(c3ccc[nH]3)C=C2OC)c1C	0.237 µM	36.7 µM	0.801 µM	14.2 µM	0.122 µM	30.1 µM	0.0178 µM	0.0461 µM	0.182 µM	> 26.9 µM	0.0194 µM	0.0911 µM	0.174 µM	20 µM	0.0329 µM	0.139 µM	–	–
Nc1nc(N)c2nc(CNc3ccc(C(=O)CC(CCC(=O)O)C(=O)O)cc3)cnc2n1 (stereo not given)	0.357 µM	–	0.127 µM	> 100 µM	0.465 µM	> 100 µM	0.202 µM	> 100 µM	0.176 µM	> 100 µM	0.45 µM	> 100 µM	0.385 µM	> 100 µM	0.374 µM	> 100 µM	–	–
CC(=O)CC(=O)N(CCN(C(=O)CC(C)=O)c1ccccc1)c1ccccc1	–	–	–	> 100 µM	–	> 100 µM	–	> 100 µM	–	> 100 µM	–	> 100 µM	–	> 100 µM	–	> 100 µM	> 100	> 100
CC1(C)CCC(=O)c2c(O)ccc(O)c21	–	–	–	–	–	> 100 µM	–	–	–	> 100 µM	–	> 100 µM	–	> 100 µM	–	> 100 µM	–	> 100
COc1cccc(-c2nn(-c3ccccc3)cc2-c2ccnc(NCCNS(=O)(=O)c3ccc(C(F)(F)F)cc3)c2)c1	1.95 µM	4.56 µM	4.16 µM	43.6 µM	4.19 µM	> 100 µM	3.8 µM	> 100 µM	2.48 µM	6.28 µM	1.72 µM	3.11 µM	2.39 µM	9.88 µM	3.22 µM	35 µM	–	–
O=C(O)C(=O)Cc1ccc2c(c1)OCO2	–	> 100 µM	–	> 100 µM	–	> 100 µM	–	> 100 µM	–	> 100 µM	–	> 100 µM	–	> 100 µM	–	> 100 µM	–	–
Cc1cc(N(CCOS(C)(=O)=O)CCOS(C)(=O)=O)ccc1C=Nc1ccc(-c2csc(-c3ccccc3)n2)c(Cl)c1	–	73.6 µM	–	29.3 µM	–	32.2 µM	–	43.1 µM	–	16.8 µM	–	16.2 µM	–	46.1 µM	–	20.6 µM	–	–
Cc1cc(C)c(C(=O)O)c(N)c1O	–	–	–	> 100 µM	–	> 100 µM	–	> 100 µM	–	–	–	> 100 µM	–	> 100 µM	–	> 100 µM	> 100	> 100
COc1cc(C(=O)C/C(CCC(=O)Nc2ccccc2[N+](=O)[O-])=N\NC(=O)C(N)=O)ccc1O	–	–	–	> 100 µM	–	> 100 µM	–	> 100 µM	–	> 100 µM	–	–	–	> 100 µM	–	> 100 µM	> 100	> 100
CN1CCN(C(=O)c2ccc(NC(=O)Nc3ccc(N(C)c4ccnc(Nc5ccc(CS(C)(=O)=O)cc5)n4)cc3)cc2)CC1	9.05 µM	> 25 µM	7.61 µM	> 25 µM	> 16.4 µM	> 25 µM	> 23.2 µM	> 25 µM	11.2 µM	> 25 µM	12.4 µM	> 25 µM	> 25 µM	> 25 µM	9.99 µM	> 25 µM	–	–
CC1(C)SC2C(C(=O)O)N=C(Cc3ccccc3)N2C1C(=O)O (stereo not given)	–	> 100 µM	–	> 100 µM	–	> 100 µM	–	> 100 µM	–	57.3 µM	–	> 100 µM	–	40.5 µM	–	> 100 µM	–	–
CS(=O)(=O)c1ccc(N/N=C/c2c(-c3ccc(S(C)(=O)=O)cc3)[nH]c3ccc(F)cc23)cc1	1.44 µM	> 50 µM	2.17 µM	> 50 µM	2.78 µM	> 50 µM	2.16 µM	> 50 µM	0.676 µM	2.11 µM	0.792 µM	1.5 µM	2.95 µM	> 50 µM	1.91 µM	> 50 µM	–	–
CNC(=O)c1ccc(Nc2ncc(C(F)(F)F)c(NCc3nccnc3N(C)S(C)(=O)=O)n2)cc1	2.98 µM and 2.06 µM and 2.14 µM	> 10 µM and 7.41 µM and 9.73 µM	2.16 µM and 2.07 µM and 1.98 µM	> 10 µM and 9.71 µM and 9.8 µM	0.881 µM and 1.81 µM and 1.64 µM	> 10 µM and 12 µM and 13.1 µM	2 µM and 2.27 µM and 1.98 µM	> 10 µM and 11.6 µM and 19 µM	1.86 µM and 1.99 µM and 1.82 µM	4.76 µM and 5.11 µM and 4.9 µM	1.85 µM and 2.1 µM and 2.09 µM	4.59 µM and 4.55 µM and 5.49 µM	1.65 µM and 1.7 µM and 3.09 µM	> 10 µM and 10.4 µM and 13.3 µM	1.76 µM and 1.66 µM and 1.63 µM	> 10 µM and 4.37 µM and 4.24 µM	–	–
OCCN1CCN(CCO)Cc2ccccc2OCCOc2ccccc2C1	–	–	–	> 100 µM	–	> 100 µM	–	> 100 µM	–	> 100 µM	–	> 100 µM	–	> 100 µM	–	–	> 100	> 100
